According to patent publication US4381301A, “Substituted tricyclic thieno compounds, their synthesis, their use, their compositions and their medicaments” (BYK Gulden Lomberg Chemische Fabrik GmbH, priority 1980, dated 1983):

How the values were obtained:
[1] = tested on: stomach (Shay rat, gastric ulcers); experiment: Antiulcerogenic (protective) action on the stomach, so-called Shay rat (pylorus ligature + acetylsalicylic acid), ulcer index; assay type: in vivo; conditions: for ED50: Rattus norvegicus, po, peroral administration to rats, 1 hour before pylorus ligature, dose which reduces the ulcer index by 50% compared with control; for dose/action curve (antiulcerogenic action): compound 1 even at 300 mg/kg
Protocol: (§1) ED50 = dose which reduces the ulcer index by 50% in the treated grou
(§2) compared with the control group
(§3) The antiulcerogenic action was tested in accordance with the method using the so-called Shay rat:
(§4) Rats (female, 180 to 200 g, 4 animals per cage on a high grid) which had been fasted for 24 hours were subjected to ulcer provocation by pylorus ligature (under diethyl ether anaesthesia) and oral administration of 100 mg/10 ml/kg of acetylsalicylic acid. The substances to be tested are administered orally (10 ml/kg) 1 hour before the pylorus ligature. The wound is closed by means of Michel clamps. 4 hours thereafter, the animals are killed under ether anaesthesia by atlas dislocation, and the stomach is removed. The stomach is opened longitudinally and fixed to a cork tile after the amount of gastric juice secreted (volume) has been determined; the number and size (=diameter) of ulcers present are determined with a stereomicroscope with 10-fold magnification. The product of the degree of severity (according to the following rating scale) and the number of ulcers serves as the individual ulcer index. […]
(§5) ______________________________________
(§6) The reduction in the average ulcer index of each treated group compared with that of the control group (=100%) serves as a measure of the antiulcerogenic effect. The ED50 designates the dose which reduces the average ulcer index by 50%.

[2] = as above; assay type: in vivo; conditions: rat, in vivo; LD50 i.v. mice / ED50 p.o. rats; read-out: TQ LD50/ED50 (therapeutic quotient)
Protocol: as §1, §2, §3, §4, §5, §6

[3] = tested on: Gastric secretion; experiment: Inhibition of gastric secretion in the Shay rat; assay type: in vivo; conditions: in rats, 4 hours after administration of the antiulcerogenic ED50
Protocol: ^(+) % inhibition = inhibition of the gastric secretion (in %) 4 hour
after administration of the antiulcerogenic ED50
Rats (female, 180 to 200 g, 4 animals per cage on a high grid) which had been fasted for 24 hours were subjected to ulcer provocation by pylorus ligature (under diethyl ether anaesthesia) and oral administration of 100 mg/10 ml/kg of acetylsalicylic acid. The substances to be tested are administered orally (10 ml/kg) 1 hour before the pylorus ligature. The wound is closed by means of Michel clamps. 4 hours thereafter, the animals are killed under ether anaesthesia by atlas dislocation, and the stomach is removed. The stomach is opened longitudinally and fixed to a cork tile after the amount of gastric juice secreted (volume) has been determined; the number and size (=diameter) of ulcers present are determined with a stereomicroscope with 10-fold magnification. The product of the degree of severity (according to the following rating scale) and the number of ulcers serves as the individual ulcer index.

[4] = Determination of acute toxicity (LD50) in mice; conditions: mouse, in vivo; intravenous administration to mice; 7 days observation
Protocol: LD50 = dose at which 50% of the animals
The toxicity investigations are carried out on female NMRI mice (body weight: 22 to 26 g). The animals (5 animals per dose) receive feed and water ad libitum. Various doses of the substances are administered intravenously (injection time: 1 minute). The observation period is 7 days. The LD50 (the dose at which 50% of the animals die) is determined by means of linear regression.

CC1(C)[C@@H](OC(=O)CCC(=O)O)CC[C@]2(C)[C@H]3C(=O)C=C4[C@@H]5C[C@@](C)(C(=O)O)CC[C@]5(C)CC[C@@]4(C)[C@]3(C)CC[C@@H]12 [compound 1, carbenoxolone, reference compound]
ED50 [1]: ~70 mg/kg | dose/action curve (antiulcerogenic action) ([1]; oral, rats): very severely flattened so that no substantial increase in the ulcerogenic action can be achieved even at 300 mg/kg | selectivity ratio [2]: 4.1 | Gastric secretion % inhibition [3]: 7%

CN1CCN(CC(=O)N2c3ccccc3NC(=O)c3cscc32)CC1 [compound 2, 9,10-dihydro-4-[(4-methylpiperazin-1-yl)acetyl]-4H-thieno[3,4-b][1,5]benzodiazepin-10-one]
inhibition effects (antiulcerogenic action) ([1]; 10 mg/kg, oral, rats): up to 95% | ED50 [1]: 2.5 mg/kg | dose/action curve (antiulcerogenic action) ([1]; oral, rats): strictly dependent on the dose | selectivity ratio [2]: 76 | Gastric secretion % inhibition [3]: 35% | LD50 at 168 h [4]: 190 mg/kg
